Laboratory results from patent US11440922B2, “Heterocyclylmethylidene derivatives and their use as modulators of mGluR5 receptors” (Recordati Industria Chimica e Farmaceutica S.p.A., priority 2017, dated 2022).

How the values were obtained:
human mGluR5 receptor = human mGluR5 receptor (Homo sapiens (Human), UniProt P41594); assay: Radioligand binding assay at cloned human mGluR5 receptor subtype ([3H]MPEP); conditions: 4 nM [3H]MPEP, CHO T-REx h-mGluR5 cells, 60 min at 25° C.; read-out: mGlu5 Ki
human mGluR5 receptor, sequence (P41594 21-1212): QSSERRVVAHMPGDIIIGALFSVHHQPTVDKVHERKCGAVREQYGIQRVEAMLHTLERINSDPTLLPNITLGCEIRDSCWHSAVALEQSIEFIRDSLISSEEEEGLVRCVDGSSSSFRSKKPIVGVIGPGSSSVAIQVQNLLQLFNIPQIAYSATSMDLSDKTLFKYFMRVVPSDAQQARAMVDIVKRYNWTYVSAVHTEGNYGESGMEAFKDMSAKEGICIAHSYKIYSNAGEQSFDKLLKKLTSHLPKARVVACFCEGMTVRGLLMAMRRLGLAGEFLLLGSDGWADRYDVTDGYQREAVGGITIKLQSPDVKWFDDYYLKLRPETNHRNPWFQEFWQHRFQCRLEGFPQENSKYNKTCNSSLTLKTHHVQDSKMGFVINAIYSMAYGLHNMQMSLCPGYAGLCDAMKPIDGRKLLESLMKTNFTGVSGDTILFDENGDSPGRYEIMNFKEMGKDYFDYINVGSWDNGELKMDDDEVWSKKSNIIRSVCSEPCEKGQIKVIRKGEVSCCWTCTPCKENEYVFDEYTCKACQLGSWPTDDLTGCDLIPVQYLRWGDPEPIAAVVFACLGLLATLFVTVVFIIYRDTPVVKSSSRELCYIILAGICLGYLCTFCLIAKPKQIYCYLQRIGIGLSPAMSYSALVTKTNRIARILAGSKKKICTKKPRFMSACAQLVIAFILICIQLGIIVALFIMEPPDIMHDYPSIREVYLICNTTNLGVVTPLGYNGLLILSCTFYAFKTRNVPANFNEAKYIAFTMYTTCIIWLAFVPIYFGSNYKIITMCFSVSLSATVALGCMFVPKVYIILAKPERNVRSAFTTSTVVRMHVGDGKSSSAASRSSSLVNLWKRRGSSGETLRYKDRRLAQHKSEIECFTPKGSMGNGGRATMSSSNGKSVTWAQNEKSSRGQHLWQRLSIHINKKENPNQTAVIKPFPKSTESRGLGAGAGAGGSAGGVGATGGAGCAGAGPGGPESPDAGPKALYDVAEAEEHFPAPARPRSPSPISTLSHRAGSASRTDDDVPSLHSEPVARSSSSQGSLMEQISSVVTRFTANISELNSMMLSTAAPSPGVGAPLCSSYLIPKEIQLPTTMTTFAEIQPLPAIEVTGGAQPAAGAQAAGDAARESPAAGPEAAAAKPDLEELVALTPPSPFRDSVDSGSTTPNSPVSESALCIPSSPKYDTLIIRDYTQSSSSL
Excerpt: (§1) Cell lines stably transfected were generated using inducible expression vectors encoding human mGlu5 receptor using the Tetracycline-Regulated Expression system (T-REx™ system, Invitrogen, Life Technologies). Human mGluR5 open reading frame (ORF), comprehensive of the stop codon, were cloned into the pcDNA4/TO/myc-His™ A vector, carrying the TetO2. The insertion site was HindIII-PstI for mGluR5 receptors. The obtained constructs were then transfected into the T-REx CHO™ cell line using the FuGENE protocol (Roche); the CHO T-REx™ cell line stably expresses the Tet repressor (from the pcDNA6/TR plasmid) under the selection of blasticidin, 10 μg/ml. Stable clones were obtained selecting with zeocin 1 mg/ml and maintaining in ULTRA CHO medium (LONZA) supplemented with dialyzed FBS, zeocin, blasticidine, at 37° C., in an atmosphere of 5% CO2. The expression of h-mGluR5 receptors was de-repressed with 1 μg/ml tetracycline for 18 h before binding experimentation, while the expression of h-mGluR5 receptors was derepressed respectively with 3 ng/ml and 10 ng/ml tetracycline for 18 h before calcium fluorescence experimentation.
Radioligand Binding Assay at Cloned Human mGluR5 Receptor Subtype
Affinity at transmembrane glutamate metabotropic cloned human mGluR5 receptor was evaluated according to the methods of Anderson (Anderson et al., J Pharmacol. Exp. Ther., (2002), Vol. 303(3), pp. 1044-51), with some modifications. Human cloned mGluR5 was obtained by re-suspending CHO T-REx h-mGluR5 cells (50 μg/well) in 20 mM HEPES, 2 mM MgCl2, 2 mM CaCl2, pH 7.4, that then were incubated in a final volume of 1 ml for 60 min at 25° C. with 4 nM [^3H]MPEP in the absence or presence of competing drugs. Non-specific binding was determined in the presence of 10 μM MPEP. The incubation was stopped by addition of cold Tris buffer pH 7.4 and rapid filtration through 0.2% polyethyleneimine pretreated Filtermat 1204-401 (Perkin Elmer) filters. The filters were then washed with cold buffer and the radioactivity retained on the filters was counted by liquid scintillation spectrometry (Betaplate 1204 BS-Wallac).
(§2) The inhibition curves of the tested compounds at cloned mGluR5 subtypes were determined by nonlinear regression analysis using software Prism 4.0 (Graphpad, San Diego, Calif.). The IC50 values and pseudo-Hill slope coefficients were estimated by the program. The values for the inhibition constant, Ki, were calculated according to the equation Ki=IC50/(1+[L]/Kd), where [L] is the concentration of radioligand and Kd is the equilibrium dissociation constant of the radioligand-receptor complex (Cheng et al., Biochem. Pharmacol. (1973), Vol. 22, pp. 3099-3108).

human mGlu5 receptor [1] = target: T1, human mGlu5 receptor (Homo sapiens (Human), UniProt P41594); assay: Calcium fluorescence measurements, antagonist potency (negative allosteric modulator activity); type: cell-based; conditions: EC80 of quisqualate as agonist, compounds applied 10 minutes before agonist
T1 sequence (P41594 21-1212): as above
Excerpt: as §1
(§3) Cells were seeded into black-walled, clear-bottom, 96-well plates at a density of 80000 cell/well, in RPMI (without Phenol Red, without L-glutamine; Gibco LifeTechnologies, CA) supplemented with 10% dialyzed FBS. Following 18-h incubation with tetracycline, the cells were loaded with […] Ca^2+-sensitive fluorescent dye Fluo-4/AM (Molecular Probes) in Hanks' balanced saline solution (HBSS, Gibco LifeTechnologies, CA) with […] Hepes (Sigma) and 2.5 mM probenecid (Sigma), for 1 h at 37° C. The cells were washed three times with HBSS to remove extracellular dye. Fluorescence signals were measured by using the fluorescence microplate reader Flexstation III (Molecular Devices) at sampling intervals of 1.5 s for 60 s.
(§4) The antagonist potency was determined using the EC80 of the quisqualate used as agonist and the potentiation of mGlu5 activation was determined using the EC20 of the agonist (quisqualate or glutamate). The compounds were applied 10 minutes before the application of the agonist.
(§5) The negative allosteric modulator activity (expressed as IC50) and the positive allosteric modulator activity (expressed as EC50) of the compounds of the invention for the mGlu5 receptors is between 0.1 and 1000 nM.
as §2

human mGlu5 receptor [2] = target: T1, human mGlu5 receptor; assay: Calcium fluorescence measurements, potentiation of mGlu5 activation (positive allosteric modulator activity); type: cell-based; conditions: EC20 of the agonist (quisqualate or glutamate), compounds applied 10 minutes before agonist
Excerpt: as §1, §3, §4, §5

human mGlu5 receptor [3] = target: T1, human mGlu5 receptor; assay: Fold shift of agonist curve determination; type: cell-based; conditions: ratio of EC50 agonist (quisqualate or glutamate) curves in presence and in absence of test compound; compound at 1 μM
Excerpt: as §1, §3
The PAM potency was evaluated by performing an agonist concentration response curve in the presence of the compounds. The compounds at fixed concentration (0.01 or 0.1 or 1 μM) were applied 10 minutes before the incubation of the agonist (quisqualate or glutamate) dose-response curve. The fold shift was determined as ratio of EC50 agonist curves in presence and in absence of test compound. For instance, and in particular compound 34 has a fold shift of 2.7.

Ki (human mGluR5 receptor) | IC50 (human mGlu5 receptor [1]) | EC50 (human mGlu5 receptor [2]) | mGlu5 Fold Shift @1 μM (human mGlu5 receptor [3]) | Compound
1.47 nM |  |  |  | CCOC(=O)N1CC/C(=C\C#Cc2cccc(C)n2)C(C)(C)C1 [Example 3, ethyl (4E)-3,3-dimethyl-4-[3-(6-methylpyridin-2-yl)prop-2-yn-1-ylidene]piperidine-1-carboxylate]
1.01 nM |  |  |  | CCOC(=O)N1CC/C(=C\C#Cc2cc(Cl)ccn2)C(C)(C)C1 [Example 18, ethyl (4E)-4-[3-(4-chloropyridin-2-yl)prop-2-yn-1-ylidene]-3,3-dimethylpiperidine-1-carboxylate]
0.89 nM |  |  |  | CCOC(=O)N1CC/C(=C\C#Cc2cc(F)ccc2F)C(C)(C)C1 [Example 19, ethyl (4E)-4-[3-(2,5-difluorophenyl)prop-2-yn-1-ylidene]-3,3-dimethylpiperidine-1-carboxylate]
1.9 nM | 66.3 nM |  |  | CCOC(=O)N1CC/C(=C\C#Cc2cccc(C(F)(F)F)c2)C(C)(C)C1 [Example 22, ethyl (4E)-3,3-dimethyl-4-{3-[3-(trifluoromethyl)phenyl]prop-2-yn-1-ylidene}piperidine-1-carboxylate]
7.39 nM |  | 64.5 nM | 2.8 | Cc1cccc(C(=O)N2CC/C(=C\C#Cc3cccc(Cl)c3)C(C)(C)C2)c1 [Example 43, {(4E)-4-[3-(3-chlorophenyl)prop-2-yn-1-ylidene]-3,3-dimethylpiperidin-1-yl}(3-methylphenyl)methanone]
323 nM |  | 37.4 nM | 3.79 | Cc1cc(C(=O)N2CC/C(=C\C#Cc3cccc(CO)c3)C(C)(C)C2)c(C)o1 [Example 46, (2,5-dimethylfuran-3-yl)[(4E)-4-{3-[3-(hydroxymethyl)phenyl]prop-2-yn-1-ylidene}-3,3-dimethylpiperidin-1-yl]methanone]
82.9 nM |  |  |  | COC(=O)N1CC/C(=C\C#Cc2nccc(C)n2)C1(C)C [Example 64, methyl (3E)-2,2-dimethyl-3-[3-(4-methylpyrimidin-2-yl)prop-2-yn-1-ylidene]pyrrolidine-1-carboxylate]
29.8 nM |  |  |  | CCOC(=O)N1CC/C(=C\C#Cc2cc(C#N)ccn2)C1(C)C [Example 73, ethyl (3E)-3-[3-(4-cyanopyridin-2-yl)prop-2-yn-1-ylidene]-2,2-dimethylpyrrolidine-1-carboxylate]
932 nM |  | 121 nM | 7.66 | CC1(C)CN(C(=O)c2cccc(Cl)c2)CC/C1=C\c1cc(-c2cccc(Cl)c2)[nH]n1 [Example 107, (3-chlorophenyl)[(4E)-4-{[5-(3-chlorophenyl)-1H-pyrazol-3-yl]methylidene}-3,3-dimethylpiperidin-1-yl]methanone]
1.6 nM |  | 52.8 nM | 2.14 | CC1(C)CN(C(=O)c2cccc(Cl)c2)CC/C1=C\C#Cc1cccc(C#N)c1 [Example 116, 3-{(3E)-3-[1-(3-chlorobenzoyl)-3,3-dimethylpiperidin-4-ylidene]prop-1-yn-1-yl}benzonitrile]
8.05 nM |  | 49.7 nM | 2.9 | CC1(C)CN(C(=O)c2cccc(Cl)c2)CC/C1=C\C#Cc1cccc(CO)c1 [Example 119, (3-chlorophenyl){(4E)-4-{3-[3-(hydroxymethyl)phenyl]prop-2-yn-1-ylidene}-3,3-dimethylpiperidin-1-yl]methanone]
4.02 nM |  | 38.6 nM | 5.5 | CC1(C)CN(C(=O)c2cccc(Cl)c2)CC/C1=C\C#Cc1ccc(F)cc1 [Example 120, (3-chlorophenyl){(4E)-4-[3-(4-fluorophenyl)prop-2-yn-1-ylidene]-3,3-dimethylpiperidin-1-yl}methanone]
 |  | 115 nM | 3.4 | CC1(C)CN(C(=O)c2cccc(O)c2)CC/C1=C\C#Cc1cccc(Cl)c1 [Example 126, {(4E)-4-[3-(3-chlorophenyl)prop-2-yn-1-ylidene]-3,3-dimethylpiperidin-1-yl}(3-hydroxyphenyl)methanone]
1.82 nM |  | 165 nM | 3.5 | Cc1cccc(C(=O)N2CC/C(=C\C#Cc3cccc(Cl)c3)C(C)(C)C2)n1 [Example 128, {(4E)-4-[3-(3-chlorophenyl)prop-2-yn-1-ylidene]-3,3-dimethylpiperidin-1-yl}(6-methylpyridin-2-yl)methanone]
 |  | 268 nM | 2.1 | COc1cccc(C(=O)N2CC/C(=C\C#Cc3cccc(Cl)c3)C(C)(C)C2)c1 [Example 137, {(4E)-4-[3-(3-chlorophenyl)prop-2-yn-1-ylidene]-3,3-dimethylpiperidin-1-yl}(3-methoxyphenyl)methanone]
 |  |  | 1.35 | COc1cc(OC)nc(C(=O)N2CC/C(=C\C#Cc3cccc(Cl)c3)C(C)(C)C2)n1 [Example 166, {(4E)-4-[3-(3-chlorophenyl)prop-2-yn-1-ylidene]-3,3-dimethylpiperidin-1-yl}(4,6-dimethoxypyrimidin-2-yl)methanone]
2.42 nM |  | 23 nM | 2.7 | CCn1nc(C)c(C(=O)N2CC/C(=C\C#Cc3cccc(Cl)c3)C(C)(C)C2)n1 [Example 167, {(4E)-4-[3-(3-chlorophenyl)prop-2-yn-1-ylidene]-3,3-dimethylpiperidin-1-yl}(2-ethyl-5-methyl-2H-1,2,3-triazol-4-yl)methanone]
7.35 nM |  | 224 nM | 3.9 | CC1(C)CN(C(=O)c2cccc(Cl)c2)CC/C1=C\C#Cc1cccc(O)c1 [Example 191, (3-chlorophenyl){(4E)-4-[3-(3-hydroxyphenyl)prop-2-yn-1-ylidene]-3,3-dimethylpiperidin-1-yl}methanone]
 |  | 87.7 nM | 2.2 | COc1cccc(C(=O)N2CC/C(=C\C#Cc3cccc(C#N)c3)C(C)(C)C2)c1 [Example 196, 3-{(3E)-3-[1-(3-methoxybenzoyl)-3,3-dimethylpiperidin-4-ylidene]prop-1-yn-1-yl}benzonitrile]
637 nM |  | 291 nM | 2.3 | Cc1cc(C(=O)N2CC/C(=C\C#Cc3cc(F)cc(C#N)c3)C(C)(C)C2)c(C)o1 [Example 200, 3-[(3E)-3-{1-[(2,5-dimethylfuran-3-yl)carbonyl]-3,3-dimethylpiperidin-4-ylidene}prop-1-yn-1-yl]-5-fluorobenzonitrile]
1.91 nM |  | 88.2 nM | 4.5 | O=C(c1cccc(Cl)c1)N1CC/C(=C\C#Cc2cccc(Cl)c2)C(F)(F)C1 [Example 201, (3-chlorophenyl){(4E)-4-[3-(3-chlorophenyl)prop-2-yn-1-ylidene]-3,3-difluoropiperidin-1-yl}methanone]
